ChEMBL document CHEMBL1201862, “PubChem BioAssay data set” (2004)
Activity calls are given as the source filed them.

Assays:
[1] = system: Streptococcus sp. 'group A'; test: growth inhibition of control SK(-) GAS strain, dose response, counter-screen for streptokinase expression inhibitor project, luminescence, kanamycin, BacTiterGlo, confirmation (AID 1900); type: functional, organism-based
Streptokinase A = target: T1, Streptokinase A (Streptococcus pyogenes serotype M1, UniProt P10520); test: S. pyogenes streptokinase expression inhibitors, potency, dose response, plasminogen activation absorbance, OD405 (AID 1914); type: functional, Streptococcus pyogenes M1 GAS;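 note: secreted streptokinase activity via plasminogen activation per viability signal from cell pellet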
T1 sequence (P10520 whole entry): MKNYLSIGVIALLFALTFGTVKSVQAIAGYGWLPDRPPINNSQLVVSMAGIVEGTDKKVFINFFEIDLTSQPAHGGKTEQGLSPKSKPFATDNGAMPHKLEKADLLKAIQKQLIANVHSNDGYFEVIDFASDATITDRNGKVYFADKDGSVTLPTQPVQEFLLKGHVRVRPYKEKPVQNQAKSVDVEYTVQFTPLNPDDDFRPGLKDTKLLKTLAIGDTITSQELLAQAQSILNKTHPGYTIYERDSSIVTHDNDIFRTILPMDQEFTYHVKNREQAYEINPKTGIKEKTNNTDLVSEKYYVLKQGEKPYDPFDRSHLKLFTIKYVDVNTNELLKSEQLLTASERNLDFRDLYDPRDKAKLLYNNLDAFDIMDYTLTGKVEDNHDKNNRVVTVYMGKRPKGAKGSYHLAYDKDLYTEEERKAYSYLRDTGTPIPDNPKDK

[2] = target: Luciferin 4-monooxygenase (Photinus pyralis, UniProt P08659); test: firefly luciferase enzyme inhibitors, dose response, biochemical, luminescence (AID 1891)
Chain of Luciferin 4-monooxygenase (P08659 whole entry): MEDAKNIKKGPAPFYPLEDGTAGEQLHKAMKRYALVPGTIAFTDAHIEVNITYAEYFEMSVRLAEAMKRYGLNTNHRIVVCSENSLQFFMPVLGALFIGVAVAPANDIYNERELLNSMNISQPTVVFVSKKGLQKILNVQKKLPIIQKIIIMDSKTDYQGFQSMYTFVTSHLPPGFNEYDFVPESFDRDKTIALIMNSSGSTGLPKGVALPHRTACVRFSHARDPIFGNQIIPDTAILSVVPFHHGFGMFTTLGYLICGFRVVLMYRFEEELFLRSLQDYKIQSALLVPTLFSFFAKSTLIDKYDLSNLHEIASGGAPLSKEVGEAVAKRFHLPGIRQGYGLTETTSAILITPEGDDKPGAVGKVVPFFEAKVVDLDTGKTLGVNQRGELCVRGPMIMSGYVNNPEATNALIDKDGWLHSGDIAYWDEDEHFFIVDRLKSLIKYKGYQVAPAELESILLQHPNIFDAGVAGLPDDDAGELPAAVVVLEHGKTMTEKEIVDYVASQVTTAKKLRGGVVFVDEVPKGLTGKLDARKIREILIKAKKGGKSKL

[3] = Luminescence Cell-Based Dose Confirmation HTS to Identify Inhibitors of Platelet Dense Granule Release. [Related pubchem assays: 1663 (Primary HTS), 1678 (Summary of Project)]; type: functional
Streptococcus = test: Group A Streptococcus viability loss, dose response, counter-screen for streptokinase expression inhibitor project, luminescence, BacTiterGlo (AID 1915); type: functional, organism-based;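 note: potency for reduction of bacterial viability or growth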
Cytochrome P450 2D6 = Cytochrome P450 2D6 (Homo sapiens, UniProt P10635);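 note: CYP2D6 member of a cytochrome P450 panel assay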
Chain of Cytochrome P450 2D6 (P10635 whole entry): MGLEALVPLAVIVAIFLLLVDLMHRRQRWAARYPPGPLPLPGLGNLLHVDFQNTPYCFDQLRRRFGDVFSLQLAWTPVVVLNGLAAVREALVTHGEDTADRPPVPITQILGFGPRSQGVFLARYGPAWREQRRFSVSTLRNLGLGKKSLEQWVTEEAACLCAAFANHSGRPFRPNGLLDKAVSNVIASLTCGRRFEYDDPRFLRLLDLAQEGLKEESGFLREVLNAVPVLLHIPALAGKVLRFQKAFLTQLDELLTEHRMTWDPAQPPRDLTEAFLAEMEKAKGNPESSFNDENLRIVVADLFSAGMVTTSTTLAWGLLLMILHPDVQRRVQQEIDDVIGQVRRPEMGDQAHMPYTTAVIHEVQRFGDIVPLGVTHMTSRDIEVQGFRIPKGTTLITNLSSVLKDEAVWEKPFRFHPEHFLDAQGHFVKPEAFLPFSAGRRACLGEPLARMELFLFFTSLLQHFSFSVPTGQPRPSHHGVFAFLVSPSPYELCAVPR

[4] = target: T2, Calpain-2 catalytic subunit (Sus scrofa, UniProt P43367); test: pig calpain II inhibitor potency, dose response, biochemical, fluorogenic peptide substrate (AID 1420); type: functional
T2 sequence (P43367 whole entry): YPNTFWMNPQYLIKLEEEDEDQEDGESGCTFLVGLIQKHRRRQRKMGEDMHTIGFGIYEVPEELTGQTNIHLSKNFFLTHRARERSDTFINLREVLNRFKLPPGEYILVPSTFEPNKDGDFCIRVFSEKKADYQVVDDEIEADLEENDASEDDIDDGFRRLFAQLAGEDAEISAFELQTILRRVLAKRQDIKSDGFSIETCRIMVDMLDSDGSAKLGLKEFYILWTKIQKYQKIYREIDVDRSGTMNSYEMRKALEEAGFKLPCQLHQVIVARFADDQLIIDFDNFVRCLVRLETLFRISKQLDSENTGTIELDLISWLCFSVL

[5] = target: FAD-linked sulfhydryl oxidase ALR (Homo sapiens, UniProt P55789); test: inhibitors of human ALR sulfhydryl oxidase, dose response, biochemical, H2O2 detection, luminescence, cherry-pick (AID 493248)
Chain of FAD-linked sulfhydryl oxidase ALR (P55789 whole entry): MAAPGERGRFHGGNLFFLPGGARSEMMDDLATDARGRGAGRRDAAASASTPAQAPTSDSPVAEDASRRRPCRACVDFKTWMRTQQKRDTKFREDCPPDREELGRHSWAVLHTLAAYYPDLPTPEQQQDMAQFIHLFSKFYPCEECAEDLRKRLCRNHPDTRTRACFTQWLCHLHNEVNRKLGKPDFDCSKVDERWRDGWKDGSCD

[6] = P. falciparum Dd2 growth inhibitors, dose response, SYBR Green, cherry-picked samples (AID 1159567); type: functional, cell-based
[7] = NIH-3T3 fibroblast cytotoxicity, dose response, cytotoxicity control, cell-based, fluorescence, Alamar Blue, secondary assay (AID 2327); type: functional;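 note: NIH-3T3 mouse fibroblasts cultured with fluconazole at 8 µg/mL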
[8] = C. albicans growth with fluconazole, confirmation, fluorescence, retest (AID 2467); type: functional, cell-based
INS1 = test: beta cell apoptosis inhibitors, cytokine rescue, dose response, luminescence, retest (AID 449756); type: functional, cell-based; conditions: Rattus norvegicus;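 note: cell death triggered by IL-1 beta plus TNF-alpha plus IFN-gamma mixture; protective hits raise ATP signal compared with cytokine alone wells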
Cytochrome P450 2C9 = Cytochrome P450 2C9 (Homo sapiens, UniProt P11712)
Chain of Cytochrome P450 2C9 (P11712 whole entry): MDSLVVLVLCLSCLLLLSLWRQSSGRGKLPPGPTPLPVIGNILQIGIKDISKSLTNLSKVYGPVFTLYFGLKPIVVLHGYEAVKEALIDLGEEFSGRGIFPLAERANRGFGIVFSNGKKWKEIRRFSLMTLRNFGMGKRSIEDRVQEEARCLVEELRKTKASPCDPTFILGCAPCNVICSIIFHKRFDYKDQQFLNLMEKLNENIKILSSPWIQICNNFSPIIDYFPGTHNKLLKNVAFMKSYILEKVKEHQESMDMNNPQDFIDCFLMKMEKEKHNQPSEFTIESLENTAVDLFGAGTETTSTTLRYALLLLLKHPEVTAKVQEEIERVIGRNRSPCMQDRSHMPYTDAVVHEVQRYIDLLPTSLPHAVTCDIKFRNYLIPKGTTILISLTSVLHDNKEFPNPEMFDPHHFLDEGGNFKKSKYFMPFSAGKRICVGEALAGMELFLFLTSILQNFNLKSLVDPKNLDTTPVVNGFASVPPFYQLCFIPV

Cytochrome P450 2C19 = Cytochrome P450 2C19 (Homo sapiens, UniProt P33261); test: Cytochrome panel assay with activity outcomes. Panel member name: p450-cyp2c19 Compounds with AC50 equal or less than 10 uM are considered active; type: functional; conditions: read-out: AC50
Chain of Cytochrome P450 2C19 (P33261 whole entry): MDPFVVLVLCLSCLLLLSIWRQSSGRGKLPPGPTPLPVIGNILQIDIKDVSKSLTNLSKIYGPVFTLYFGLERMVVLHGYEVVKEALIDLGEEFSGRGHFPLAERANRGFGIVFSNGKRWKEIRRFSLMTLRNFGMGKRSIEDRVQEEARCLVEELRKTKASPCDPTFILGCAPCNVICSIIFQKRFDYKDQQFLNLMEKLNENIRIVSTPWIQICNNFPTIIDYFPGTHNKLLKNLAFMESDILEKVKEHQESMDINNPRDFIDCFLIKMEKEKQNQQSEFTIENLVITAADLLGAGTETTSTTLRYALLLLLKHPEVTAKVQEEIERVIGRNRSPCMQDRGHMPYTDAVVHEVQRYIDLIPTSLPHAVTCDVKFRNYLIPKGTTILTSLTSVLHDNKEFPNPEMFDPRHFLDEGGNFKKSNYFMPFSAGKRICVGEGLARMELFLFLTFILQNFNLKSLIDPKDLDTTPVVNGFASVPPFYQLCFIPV

Cytochrome P450 1A2 = target: T3, Cytochrome P450 1A2 (Homo sapiens, UniProt P05177);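 note: PubChem cytochrome P450 panel assay, CYP1A2 panel member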
T3 sequence (P05177 whole entry): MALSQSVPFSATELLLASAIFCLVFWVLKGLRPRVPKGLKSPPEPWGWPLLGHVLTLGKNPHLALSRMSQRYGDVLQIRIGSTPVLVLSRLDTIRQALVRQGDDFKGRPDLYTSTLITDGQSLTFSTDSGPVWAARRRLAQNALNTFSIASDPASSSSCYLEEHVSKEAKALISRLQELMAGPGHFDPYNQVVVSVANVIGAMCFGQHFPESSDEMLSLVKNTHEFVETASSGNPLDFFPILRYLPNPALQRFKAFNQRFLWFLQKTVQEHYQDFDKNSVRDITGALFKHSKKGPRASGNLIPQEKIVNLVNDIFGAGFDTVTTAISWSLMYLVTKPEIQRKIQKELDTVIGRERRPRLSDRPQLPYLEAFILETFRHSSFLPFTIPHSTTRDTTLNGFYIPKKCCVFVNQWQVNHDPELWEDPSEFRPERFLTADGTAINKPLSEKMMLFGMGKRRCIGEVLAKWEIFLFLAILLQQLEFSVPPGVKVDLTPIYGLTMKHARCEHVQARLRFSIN

[9] = Luminescence Cell-Based Dose Retest to Confirm Inhibitors of Cancer Stem Cells. [Related pubchem assays (depositor defined):AID2717, AID2721]; type: functional; conditions: Homo sapiens
[10] = Shn3 3'UTR reporter inhibitors, dose response, cell-based, Clone20 osteoblasts, firefly luciferase, cherry-picked (AID 624132); type: functional;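 note: firefly luciferase luminescence from reporter carrying the Shn3 3'UTR in osteoblasts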
Cytochrome P450 3A4 = Cytochrome P450 3A4 (Homo sapiens, UniProt P08684);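 note: CYP3A4 tested as one member of a cytochrome P450 panel screen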
Chain of Cytochrome P450 3A4 (P08684 whole entry): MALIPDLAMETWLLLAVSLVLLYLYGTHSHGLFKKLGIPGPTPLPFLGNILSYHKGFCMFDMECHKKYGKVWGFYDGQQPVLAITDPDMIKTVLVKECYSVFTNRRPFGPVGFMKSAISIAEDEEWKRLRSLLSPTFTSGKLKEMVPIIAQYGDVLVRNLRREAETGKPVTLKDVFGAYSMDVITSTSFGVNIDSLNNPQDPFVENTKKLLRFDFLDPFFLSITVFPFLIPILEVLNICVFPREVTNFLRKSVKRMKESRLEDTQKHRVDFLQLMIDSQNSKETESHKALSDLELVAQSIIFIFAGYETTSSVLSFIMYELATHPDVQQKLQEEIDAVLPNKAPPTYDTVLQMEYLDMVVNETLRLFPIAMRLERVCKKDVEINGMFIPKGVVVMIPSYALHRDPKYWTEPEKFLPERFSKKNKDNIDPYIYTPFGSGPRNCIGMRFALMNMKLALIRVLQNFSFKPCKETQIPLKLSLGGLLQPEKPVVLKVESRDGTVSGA

O=C(c1ccccc1)c1cc2ccc(O)cc2oc1=O
EC50 [1]: 8.12 µM (active) | EC50 (Streptokinase A): > 150 µM (not active) | EC50 [2]: 1.14 µM (active) | EC50 [3]: < 0.701 µM (active) | EC50 (Streptococcus): 18.5 µM (active)

COc1ccc2[nH]cc(CCNc3ccnc(-c4ccc(C(=O)N(C)C)cc4)n3)c2c1
AC50 (Cytochrome P450 2D6): 25.1 µM (inconclusive)

Cc1cc(C)c(C(=O)COC(=O)CCNS(=O)(=O)c2c(Cl)cccc2Cl)cc1C
IC50 [4]: 4.97 µM (not active)

Cc1cc(NC(=O)C2CCCN(S(=O)(=O)c3c[nH]cn3)C2)ccc1Br (configuration not stated)
AC50 [5]: 69.2 µM (active)

CC(=O)N/N=C/c1cc(C)n(-c2ccc(Br)cc2)c1C
AC50 [5]: 0.414 µM (active)

COc1ccc2c3c([nH]c2c1)[C@@H](CO)N(Cc1cccc(F)c1)CC31CCN(C(C)=O)CC1
AC50 [6]: 5.78 µM (active)

COc1cc(N/C=C(\C(C)=O)c2ccccc2)cc(OC)c1
IC50 [4]: > 50 µM (not active)

Cc1nc(Nc2ccccc2)sc1C(=O)c1ccccc1
IC50 [4]: 3.41 µM (not active)

COC(=O)N1CCN(C(=O)Cc2ccc(Cl)c(Cl)c2)[C@H](CN2CCCC2)C1
AC50 (Cytochrome P450 2D6): 20 µM (inconclusive)

O=C(N/N=C1/CC/C(=N/NC(=O)c2cccnc2)CC1)c1cccnc1
AC50 [5]: 0.879 µM (active)

O=C(Oc1c(CN2CCOCC2)cc(Cl)c2cccnc12)c1ccccc1
EC50 [7]: > 150 µM (inactive) | EC50 [8]: 3.71 µM (active) | AC50 (INS1): 4.16 µM (active)

CCn1c(S)nnc1CN1C(=O)CSc2ccccc21
AC50 [5]: 1.85 µM (active)

CCc1c(C)c2cc(Cl)c(O)c(CN3CCCCC3)c2oc1=O
AC50 [5]: 9.26 µM (active)

COc1ccc(CNc2nc(-c3ccc4c(c3)OCO4)nc3ccccc23)c(OC)c1
AC50 (Cytochrome P450 2D6): 12.6 µM (inconclusive) | AC50 (Cytochrome P450 2C9): 0.501 µM (inconclusive)

Cc1cc(NC(=O)c2ccccc2Cl)no1
EC50 [2]: > 112 µM (not active) | EC50 [3]: > 112 µM (not active) | AC50 (Cytochrome P450 2C19): 14.1 µM (inconclusive) | AC50 (Cytochrome P450 1A2): 31.6 µM (inconclusive)

O=C(NCC1CC1)Nc1cccs1
AC50 [5]: 4.97 µM (active)

NCC(c1ccc(Cl)cc1Cl)c1c[nH]c2ccccc12 (configuration not stated)
EC50 [7]: 26.2 µM (active) | EC50 [8]: > 38 µM (not active) | AC50 [9]: 8.89 µM (active)

CC(C)c1cc(C(N)=O)c(NC(=O)C2CCC2)s1
AC50 [5]: 9.12 µM (active)

Cn1c(N)c(C(=O)COC(=O)CCC2CCCCC2)c(=O)n(C)c1=O
IC50 [4]: 5.23 µM (active)

COc1cccc(N2CCN(Cc3cccnc3)CC2)c1
AC50 [5]: 10.3 µM (active)

CCCCC(CC)C(=O)Oc1ccc(O)c(C(C)(C)C)c1 (configuration not stated)
EC50 [1]: 3.2 µM (active) | EC50 (Streptokinase A): 4.96 µM (active) | IC50 [4]: 13.5 µM (not active) | EC50 (Streptococcus): 7.84 µM (active)

COc1ccc(S(=O)(=O)N(C)C[C@H]2Oc3c(NC(=O)Nc4ccc5c(c4)OCO5)cccc3C(=O)N([C@@H](C)CO)C[C@H]2C)cc1
AC50 [6]: 4.41 µM (active)

O=C(N/N=C\c1cccc(Br)c1)c1ccccc1-n1cccc1
IC50 [4]: > 50 µM (not active)

CCOC(=O)c1ccccc1NC(=O)c1cccc([N+](=O)[O-])c1
EC50 [7]: > 150 µM (inactive) | EC50 [8]: > 38 µM (not active)

CN(C)c1ccc(-c2nc(Nc3ccncc3)c3ccccc3n2)cc1
AC50 (Cytochrome P450 2D6): 25.1 µM (inconclusive) | AC50 (Cytochrome P450 2C9): 0.794 µM (inconclusive)

CCN(CC)C(=S)Sc1c(O)nc2ccc(Cl)cc2c1-c1ccccc1
EC50 [1]: 0.831 µM (active) | EC50 (Streptococcus): 1.8 µM (active) | AC50 [10]: 27 µM (active)

CCCn1c(N)c(C(=O)COC(=O)c2c(C)noc2C)c(=O)n(C)c1=O
EC50 [7]: > 150 µM (inactive) | EC50 [8]: > 38 µM (not active)

CCC(=O)N1CCc2cc(S(=O)(=O)NCCC(=O)N3CCN(c4cccc(C)c4)C(C)C3)ccc21 (configuration not stated)
AC50 [5]: 72.4 µM (active)

COC(=O)c1c(C(=O)OC)c(-c2ccc(Cl)c(Cl)c2)n2c1CCC2
EC50 [7]: > 160 µM (inactive) | EC50 [8]: > 38 µM (not active)

CCN(CC)c1ccc(C2CC(=O)Nc3cc(OC)c(OC)cc32)cc1 (configuration not stated)
AC50 [5]: 2.47 µM (active)

CC(C)(C)OC(=O)NCCCC[C@H](NC(=O)c1nc[nH]c1C(=O)N[C@@H](CCCCNC(=O)OC(C)(C)C)C(=O)OC(C)(C)C)C(=O)OC(C)(C)C
IC50 [4]: 3.89 µM (not active)

COC(=O)c1[nH]c2ccccc2c1NC(=O)CN1CCN(C(=O)c2ccco2)CC1
EC50 [2]: > 112 µM (not active) | EC50 [3]: > 112 µM (not active)

COc1ccc(N2CCN(C(=O)NCc3ccc(OC)c(OC)c3)CC2)cc1
AC50 [5]: 5.76 µM (active)

CN=C(S)NNC(=O)c1ccccc1F
IC50 [4]: 17.7 µM (not active)

c1csc(CN2CC[C@@]3(CCCNC3)C2)n1
AC50 (Cytochrome P450 2D6): 12.6 µM (inconclusive)

CN(C)c1ccc(-c2nc(NC3CCNCC3)c3ccccc3n2)cc1
AC50 (Cytochrome P450 2D6): 39.8 µM (inconclusive) | AC50 (Cytochrome P450 3A4): 31.6 µM (inconclusive)

CO[C@H]1CN(C)C(=O)c2ccc(NC(=O)Nc3cc(F)ccc3F)cc2OC[C@@H](C)N(C)C[C@H]1C
AC50 [6]: 11.4 µM (active)

Cc1ccc(Nc2nc(-c3sc(NC(=O)c4ccc([N+](=O)[O-])cc4)nc3C)cs2)cc1
AC50 (Cytochrome P450 2D6): 0.01 µM (inconclusive) | AC50 (Cytochrome P450 1A2): 2.24 µM (inconclusive)

O=C(NCc1cccnc1)C(=O)NCC(c1ccco1)N1CCN(c2ccc(F)cc2)CC1 (configuration not stated)
AC50 [5]: 6.41 µM (active)

C[C@H](CO)N1C[C@H](C)[C@H](CN(C)S(=O)(=O)c2ccccc2F)OCc2ccccc2-c2c(n(C)c3ccccc23)C1=O
AC50 [6]: 3.61 µM (active)

O=C1CCC(c2ccccc2)=NN1c1nc2ccccc2s1
AC50 (Cytochrome P450 2D6): 3.98 µM (inconclusive) | AC50 (Cytochrome P450 2C9): 3.98 µM (inconclusive)

C[C@H]1CN([C@@H](C)CO)S(=O)(=O)c2ccc(C#Cc3ccncc3)cc2O[C@H]1CN(C)S(=O)(=O)c1ccc(F)cc1
AC50 [6]: 4.11 µM (active)
